Literature values in PMC5629142 (Drugs in R&D, 2017).

Conditions: TBZ co-administered with CYP2D6 inhibitors

COc1cc2c(cc1OC)[C@@H]1C[C@H](O)[C@@H](CC(C)C)CN1CC2 [α-HTBZ]
increase in overall exposure: 3 fold
